One data set deals with NLRP3 (Homo sapiens, UniProt Q96P20). Put plainly: THP-1 cells pyroptosis assay. Format: cell-based. More on the design: Seed THP-1 cells (25,000 cells/well) containing 1.0 μg/ml LPS; host or cells: THP-1. The settings on record: LPS 1.0 μg/ml, nigericin 5 μM, resazurin readout, 10 μM top dose (Example 2: top dose of 30 μM). The method in brief:
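THP-1 cells (25,000/well) primed with 1 μg/ml LPS in serum-free RPMI, treated with compound (8-point dilution, 10 μM top unless stated; 0.1% DMSO) 3 h at 37°C, then nigericin 5 μM 1 h. Viability read by resazurin (100 μM, 1-2 h) fluorescence; IC50 from 4-parameter fit.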
On the technique in general: Alamar Blue is a resazurin reagent that responds to reducing activity.

The nature of data set [1]: PK, intravenous administration. The format is in vivo. Particulars: rat, plasma, male Sprague Dawley rats, dose about 1 mg/kg; for Vd: read-out: Vdss. The method, then:
Pharmacokinetic parameters were determined in male Sprague Dawley rats (Vital River Laboratory Animal Technology Co Ltd, Beijing, China, 6-9 weeks old). Animals were maintained under a 12 h light/dark cycle. Animals had free access to food and water, except that orally dosed animals were food deprived overnight prior to the study.
For intravenous administration, compounds were formulated as a solution (in DMSO:water [10:90] or in DMSO:PBS [10:90]) in 2 mL/kg dosing volume and administered via tail vein. For oral administration, compounds were formulated as a solution (in 0.5% methylcellulose in water) in […] dosing volume and administered orally.
Serial blood samples (about 200 μL) were taken from each animal at each of 8 time-points post dose ([…], 0.25, 0.5, 1, 2, 4, 8 and 24 h). Samples were held on ice for no longer than 30 minutes before centrifugation (5,696 rpm (3,000 g) for 15 minutes) for plasma generation. Plasma was frozen on dry ice prior to bioanalysis. PK parameters were generated from LC-MS/MS data using Phoenix WinNonlin 6.3 software.

pIC50: −log10 of the molar value. A value given as a limit tells only on which side of the number the result lay.

Sequence of NLRP3 (Q96P20 whole entry): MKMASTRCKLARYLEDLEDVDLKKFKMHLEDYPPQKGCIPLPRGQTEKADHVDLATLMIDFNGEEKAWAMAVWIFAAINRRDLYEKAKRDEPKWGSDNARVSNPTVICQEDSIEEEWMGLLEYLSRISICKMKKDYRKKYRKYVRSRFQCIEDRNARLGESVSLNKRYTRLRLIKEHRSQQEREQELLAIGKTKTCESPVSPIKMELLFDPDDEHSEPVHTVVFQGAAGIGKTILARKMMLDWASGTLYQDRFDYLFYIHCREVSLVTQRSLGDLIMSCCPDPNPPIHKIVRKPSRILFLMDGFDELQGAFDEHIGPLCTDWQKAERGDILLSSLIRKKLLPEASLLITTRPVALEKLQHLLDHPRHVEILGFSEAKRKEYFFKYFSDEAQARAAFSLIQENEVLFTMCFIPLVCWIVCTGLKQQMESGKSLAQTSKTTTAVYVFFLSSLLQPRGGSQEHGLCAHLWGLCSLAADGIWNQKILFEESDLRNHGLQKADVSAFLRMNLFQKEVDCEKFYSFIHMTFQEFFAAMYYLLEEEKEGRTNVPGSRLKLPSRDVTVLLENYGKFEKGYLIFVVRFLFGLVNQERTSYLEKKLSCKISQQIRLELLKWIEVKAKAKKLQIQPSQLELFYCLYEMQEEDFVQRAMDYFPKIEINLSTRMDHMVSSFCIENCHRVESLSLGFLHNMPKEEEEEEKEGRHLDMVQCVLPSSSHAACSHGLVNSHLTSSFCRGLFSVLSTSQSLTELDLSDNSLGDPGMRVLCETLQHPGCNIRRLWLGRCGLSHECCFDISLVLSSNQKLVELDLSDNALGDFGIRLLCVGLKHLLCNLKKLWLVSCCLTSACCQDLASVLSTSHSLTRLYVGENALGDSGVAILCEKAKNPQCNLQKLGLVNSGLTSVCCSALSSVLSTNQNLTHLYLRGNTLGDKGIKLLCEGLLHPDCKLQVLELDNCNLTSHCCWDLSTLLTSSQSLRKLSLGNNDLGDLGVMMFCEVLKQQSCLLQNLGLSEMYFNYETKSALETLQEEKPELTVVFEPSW

As a reminder, the pIC50 is the negative decadic logarithm of the IC50, by convention in mol/L. Low readings indicate a large IC50, high ones a small IC50. What is called AUC is concentration integrated over time. Low readings indicate low exposure, high ones high exposure. What is called clearance is a measure of how efficiently the substance is removed, as volume per time. A lower clearance goes with a low capacity for elimination. One may read the half-life as the time needed for the level to fall by half in the phase considered. As for `O=S(=O)(c1ccccc1)c1nnc(Nc2c3c(cc4c2CCC4)CCC3)[nH]1` [Example 40, N-(1,2,3,5,6,7-hexahydro-s-indacen-4-yl)-5-(phenylsulfonyl)-1H-1,2,4-triazol-3-amine], the negative logarithm of the IC50 (pIC50) against NLRP3 was at least 6.00. In data set [1], the exposure (AUC) stood at 1460 ng·h/mL, the clearance turned out to be 11.4 mL/min/kg, the half-life was 54 min and the Vd stood at 0.54 L/kg.
Regarding `Cn1cc(S(=O)(=O)c2nnc(Nc3c4c(cc5c3CCC5)CCC4)[nH]2)cn1` [Example 159, N-(1,2,3,5,6,7-hexahydro-s-indacen-4-yl)-5-((1-methyl-1H-pyrazol-4-yl)sulfonyl)-4H-1,2,4-triazol-3-amine], the pIC50 against NLRP3 was at least 5.30. In data set [1], the AUC turned out to be 2250 ng·h/mL, the clearance was determined as 6.9 mL/min/kg, the half-life was 55.8 min and the Vd was 0.38 L/kg.
Turning to `CS(=O)(=O)c1nnc(Nc2c(-c3ccnc(Oc4ccccc4)c3)ccc3c2CCC3)[nH]1` [Example 340, 5-(methylsulfonyl)-N-(5-(2-phenoxypyridin-4-yl)-2,3-dihydro-1H-inden-4-yl)-4H-1,2,4-triazol-3-amine], the negative-log IC50 (pIC50) against NLRP3 was at least 5.30.
On the same count and under the same terms, the result for `CS(=O)(=O)c1nnc(Nc2c(-c3ccnc(OC4CCOCC4)c3)ccc3c2CCC3)[nH]1` [Example 342, 5-(methylsulfonyl)-N-(5-(2-((tetrahydro-2H-pyran-4-yl)oxy)pyridin-4-yl)-2,3-dihydro-1H-inden-4-yl)-4H-1,2,4-triazol-3-amine] reads at least 5.30; that for `CN(C)C(=O)Cn1cc(S(=O)(=O)c2nnc(Nc3c4c(cc5c3CCC5)CCC4)[nH]2)cn1` [Example 348, 2-(4-((5-((1,2,3,5,6,7-hexahydro-s-indacen-4-yl)amino)-4H-1,2,4-triazol-3-yl)sulfonyl)-1H-pyrazol-1-yl)-N,N-dimethylacetamide], at least 5.30; that for `CN(C)CCn1cc(S(=O)(=O)c2nnc(Nc3c4c(cc5c3CCC5)CCC4)[nH]2)cn1` [Example 350, 5-((1-(2-(dimethylamino)ethyl)-1H-pyrazol-4-yl)sulfonyl)-N-(1,2,3,5,6,7-hexahydro-s-indacen-4-yl)-4H-1,2,4-triazol-3-amine], at least 6.00.
For the compound `Cn1cc(C#N)c(S(=O)(=O)c2nnc(Nc3c4c(cc5c3CCC5)CCC4)[nH]2)n1` [Example 351, 3-((5-((1,2,3,5,6,7-hexahydro-s-indacen-4-yl)amino)-4H-1,2,4-triazol-3-yl)sulfonyl)-1-methyl-1H-pyrazole-4-carbonitrile], the negative logarithm of the IC50 (pIC50) at NLRP3 is at least 5.30.
On NLRP3, `CC(O)Cn1cc(S(=O)(=O)c2nnc(Nc3c4c(cc5c3CCC5)CCC4)[nH]2)cn1` (stereo not shown) [Example 353, 1-(4-((5-((1,2,3,5,6,7-hexahydro-s-indacen-4-yl)amino)-4H-1,2,4-triazol-3-yl)sulfonyl)-1H-pyrazol-1-yl)propan-2-ol] gave a negative-log IC50 (pIC50) of at least 5.30.
At NLRP3, `O=S(=O)(c1ccn(C2CC2)n1)c1nnc(Nc2c3c(cc4c2CCC4)CCC3)[nH]1` [Example 354, 5-((1-cyclopropyl-1H-pyrazol-3-yl)sulfonyl)-N-(1,2,3,5,6,7-hexahydro-s-indacen-4-yl)-4H-1,2,4-triazol-3-amine] showed a pIC50 of at least 6.30.
Still for that read-out and setting: for `Cn1ncc(S(=O)(=O)c2nnc(Nc3c4c(cc5c3CCC5)CCC4)[nH]2)c1C#N` [Example 355, 4-((5-((1,2,3,5,6,7-hexahydro-s-indacen-4-yl)amino)-4H-1,2,4-triazol-3-yl)sulfonyl)-1-methyl-1H-pyrazole-5-carbonitrile] the value was at least 5.30.
At NLRP3, `CN(C)C1CCC(Oc2cc(-c3ccc4c(c3Nc3nnc(S(C)(=O)=O)[nH]3)CCC4)ccn2)CC1` (stereo not shown) [Example 356, N-(5-(2-((4-(dimethylamino)cyclohexyl)oxy)pyridin-4-yl)-2,3-dihydro-1H-inden-4-yl)-5-(methylsulfonyl)-4H-1,2,4-triazol-3-amine] showed a pIC50 of at least 5.30.
Still for that read-out and setting: for `CS(=O)(=O)c1nnc(Nc2c(-c3ccnc(OC4CCNCC4)c3)ccc3c2CCC3)[nH]1` [Example 357, 5-(methylsulfonyl)-N-(5-(2-(piperidin-4-yloxy)pyridin-4-yl)-2,3-dihydro-1H-inden-4-yl)-4H-1,2,4-triazol-3-amine] the value was at least 5.00.
At NLRP3, `CN1CCC(COc2cc(-c3ccc4c(c3Nc3nnc(S(C)(=O)=O)[nH]3)CCC4)ccn2)C1` (stereo not shown) [Example 358, N-(5-(2-((1-methylpyrrolidin-3-yl)methoxy)pyridin-4-yl)-2,3-dihydro-1H-inden-4-yl)-5-(methylsulfonyl)-4H-1,2,4-triazol-3-amine] gave a pIC50 of at least 5.00.
Still for that read-out and setting: for `CN1CCCC(COc2cc(-c3ccc4c(c3Nc3nnc(S(C)(=O)=O)[nH]3)CCC4)ccn2)C1` (stereo not shown) [Example 359, N-(5-(2-((1-methylpiperidin-3-yl)methoxy)pyridin-4-yl)-2,3-dihydro-1H-inden-4-yl)-5-(methylsulfonyl)-4H-1,2,4-triazol-3-amine] the value was at least 5.30; for `COc1cc(-c2ccc3c(c2Nc2nnc(S(C)(=O)=O)[nH]2)CCC3)ccn1` [Example 361, N-(5-(2-methoxypyridin-4-yl)-2,3-dihydro-1H-inden-4-yl)-5-(methylsulfonyl)-4H-1,2,4-triazol-3-amine], at least 5.00; for `Cc1cc2c(c(Nc3nnc(S(C)(=O)=O)[nH]3)c1-c1ccnc(OCC3CCCN(C)C3)c1)CCC2` (stereo not shown) [Example 362, N-(6-methyl-5-(2-((1-methylpiperidin-3-yl)methoxy)pyridin-4-yl)-2,3-dihydro-1H-inden-4-yl)-5-(methylsulfonyl)-4H-1,2,4-triazol-3-amine], at least 5.30.
For the compound `COCC(C)Oc1cc(-c2c(C)cc3c(c2Nc2nnc(S(C)(=O)=O)[nH]2)CCC3)ccn1` (stereo not shown) [Example 363, N-(5-(2-((1-methoxypropan-2-yl)oxy)-pyridin-4-yl)-6-methyl-2,3-dihydro-1H-inden-4-yl)-5-(methylsulfonyl)-4H-1,2,4-triazol-3-amine], the negative-log IC50 (pIC50) at NLRP3 was at least 5.30.
The same measure, in the same setting: the result for `Cc1cc2c(c(Nc3nnc(S(C)(=O)=O)[nH]3)c1-c1ccnc(OC3CCOCC3)c1)CCC2` [Example 364, N-(6-methyl-5-(2-((tetrahydro-2H-pyran-4-yl)oxy)pyridin-4-yl)-2,3-dihydro-1H-inden-4-yl)-5-(methylsulfonyl)-4H-1,2,4-triazol-3-amine] reads at least 5.30.
With `Cc1cc2c(c(Nc3nnc(S(C)(=O)=O)[nH]3)c1-c1ccnc(O[C@H]3CC[C@H](N(C)C)CC3)c1)CCC2` [Example 365, N-(5-(2-(((1r,4r)-4-(dimethylamino)cyclohexyl)oxy)pyridin-4-yl)-6-methyl-2,3-dihydro-1H-inden-4-yl)-5-(methylsulfonyl)-4H-1,2,4-triazol-3-amine], at NLRP3, the negative logarithm of the IC50 (pIC50) is at least 5.30.
`O=S(=O)(c1cccc(OC(F)(F)F)c1)c1nnc(Nc2c3c(cc4c2CCC4)CCC3)[nH]1` [Example 367, N-(1,2,3,5,6,7-hexahydro-s-indacen-4-yl)-5-((3-(trifluoromethoxy)phenyl)-sulfonyl)-4H-1,2,4-triazol-3-amine] showed a pIC50 against NLRP3 of at least 5.30.
Same read-out and setting: for `Cc1cc2c(c(Nc3nnc(S(C)(=O)=O)[nH]3)c1-c1ccnc(OC3CCNCC3)c1)CCC2` [Example 368, N-(6-methyl-5-(2-(piperidin-4-yloxy)pyridin-4-yl)-2,3-dihydro-1H-inden-4-yl)-5-(methylsulfonyl)-4H-1,2,4-triazol-3-amine] the value was at least 5.30; for `CC(C)c1cc(F)cc(-c2ccnc(OC3CCN(C)CC3)c2)c1Nc1nnc(S(C)(=O)=O)[nH]1` [Example 369, N-(4-fluoro-2-isopropyl-6-(2-((1-methylpiperidin-4-yl)oxy)pyridin-4-yl)phenyl)-5-(methylsulfonyl)-4H-1,2,4-triazol-3-amine], at least 5.30; for `CNS(=O)(=O)c1nnc(Nc2c3c(cc4c2CCC4)CCC3)[nH]1` [Example 371, 5-((1,2,3,5,6,7-hexahydro-s-indacen-4-yl)amino)-N-methyl-4H-1,2,4-triazole-3-sulfonamide], at least 5.30.
The same measure, in the same setting: for `COc1cc(-c2ccc3c(c2Nc2nnc(S(=O)(=O)c4ccccc4)[nH]2)CCC3)ccn1` [Example 372, N-(5-(2-methoxypyridin-4-yl)-2,3-dihydro-1H-inden-4-yl)-5-(phenylsulfonyl)-1H-1,2,4-triazol-3-amine] the value was at least 5.30.
In turn, `CCN(CC)CCS(=O)(=O)Cc1nnc(Nc2c3c(cc4c2CCC4)CCC3)[nH]1` [Example 373, 5-(((2-(diethylamino)ethyl)sulfonyl)methyl)-N-(1,2,3,5,6,7-hexahydro-s-indacen-4-yl)-4H-1,2,4-triazol-3-amine] gave a pIC50 against NLRP3 of at least 5.00.
The same measure, in the same setting: the result for “(E)-1-(8-((5-((4-(dimethylamino)piperidin-1-yl)sulfonyl)-4H-1,2,4-triazol-3-yl)amino)-1,2,3,5,6,7-hexahydro-s-indacen-4-yl)ethan-1-one oxime and (Z)-1-(8-((5-((4-(dimethylamino)piperidin-1-yl)sulfonyl)-4H-1,2,4-triazol-3-yl)amino)-1,2,3,5,6,7-hexahydro-s-indacen-4-yl)ethan-1-one oxime [Example 309]” reads at least 5.30.

Source of the values: patent US20210261512A1, “NOVEL COMPOUNDS” (INFLAZOME LIMITED, priority 2018, published 2021).
